Test [1] has as its target YAP-TEAD protein interaction (His-TEAD1 (209-426) protein, Bio-YAP peptide (60-100)) (Homo sapiens, UniProt P28347). Description: YAP-TEAD protein interaction HTRF experiment. The format is binding. As to conditions: His-TEAD1 (209-426) 10 nM, Bio-YAP peptide 50 nM, read-out: Activity of each compound in blocking YAP-TEAD protein interaction (grades of IC50 values). A digest of the protocol:
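His-TEAD1 (209-426) at 10 nM final was preincubated 20 min at RT with compounds (10-point 3-fold dilutions, duplicates, 1% DMSO), then Bio-YAP peptide, 10 min. Anti-His-Eu cryptate/streptavidin-XL665 added for 1 h at RT; HTRF read at ex 320 nm, Em665/Em620 ratio ×10000, IC50 from % inhibition.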
A general note: In TR-FRET formats the signal depends on donor and acceptor labels being close together.

Test [2] has as its system YAP/TEAD reporter gene. Briefly: YAP/TEAD reporter gene inhibition experiment in SF268-YAP-Luc cells. The format is cell-based. The following applies: SF268-YAP-Luc cells, 24 hours, Renila luciferase signal corrected for cell viability; read-out: Activity of each compound in inhibiting the expression of YAP/TEAD reporter gene (grades of IC50 values). Here is the method: In this example, the inhibition of the compound on the target was detected by the signal of the reporter gene in the stable cell line SF268-YAP-Luc containing the YAP/TEAD reporter gene.
A sequence containing 6 tandem YAP/TEAD binding sites and a basal transcription promoter was constructed on the vector pGL4.76 of Promega Company. The constructed reporter gene vector was transfected into SF268 cells (NCI DCTD tumor/cell line repository) and screened with 0.5 μg/mL hygromycin to obtain SF268-YAP-Luc stable strain.
SF268-YAP-Luc cells were seeded into a 96-well plate at a density of 3000 cells per well with a volume of 100 μL per well (cell culture medium composition: RPMI1640 (Gibco-A10491-01)+10% FBS (Gibco-10099-141C)+1% penicillin-streptomycin (5,000 U/mL, Gibco-15070-063)), and the cells were incubated overnight in a 37° C., 5% carbon dioxide incubator.
On the next day, the compounds to be tested were 3-fold diluted, and a total of 8 concentration gradients were set up; a certain volume of DMSO or the compounds to be tested was added to each well, respectively, and 2 replicates were set up for each concentration, and the final concentration of DMSO was controlled to be no higher than 0.5%. The cells were incubated for 24 hours in a 37° C., 5% carbon dioxide incubator. Two identical parallel plates were set up for cell seeding and compound treatment.
Renila-Glo luciferase assay system kit (Promega, E2720) was used to detect the reporter gene signals of the control group and treatment group. 70 μL of Renila-Glo was added to each well, mixed well, and incubated at room temperature for 10 minutes. The signal was read using EnVision® Multilabel Plate Reader (Perkin Elmer).
Cell viability was detected in the control group and treatment group using CellTiter-Glo Luminescent Cell Viability Assay kit (Promega, G7570). 50 μL of CellTiter-Glo was added to each well, mixed well, and incubated at room temperature for 10 minutes. The signal was read using En Vision® Multilabel Plate Reader (Perkin Elmer).
The signal of Renila luciferase after correcting for cell viability was analyzed, and the inhibition rate of the compound on the reporter gene was calculated. The inhibition percentage (%) is calculated by the following formula: […]
Using Graphpad Prism software, the IC50 values for the compounds' inhibitory activity against Renila luciferase signaling were calculated.
(Reporter assays use an easily measured gene product as a stand-in for the process of interest.)

The subject of test [3] is MSTO-211H cells. Briefly: Cell proliferation inhibition experiment (CellTiter-Glo). It counts as cell-based. The following applies: 96 hours, read-out: Inhibitory activity of each compound on the proliferation of MSTO-211H cells (grades of IC50 values). A digest of the protocol:
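MSTO-211H cells (1500/well, RPMI1640 + 10% FBS) were plated overnight at 37° C, 5% CO2, then exposed in duplicate to 9 three-fold compound dilutions (DMSO ≤0.5% final) for 96 hours. Viability was read as CellTiter-Glo luminescence after 10 min at room temperature. IC50 was derived from inhibition of the CTG signal.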
For orientation: Cellular ATP, detected with luciferase, serves as a proxy for viable cell number.

pIC50: −log10 of the molar value. Where two headings read alike, the source gives them in different places.

Chain of YAP-TEAD protein interaction (His-TEAD1 (209-426) protein, Bio-YAP peptide (60-100)) (P28347 209-426): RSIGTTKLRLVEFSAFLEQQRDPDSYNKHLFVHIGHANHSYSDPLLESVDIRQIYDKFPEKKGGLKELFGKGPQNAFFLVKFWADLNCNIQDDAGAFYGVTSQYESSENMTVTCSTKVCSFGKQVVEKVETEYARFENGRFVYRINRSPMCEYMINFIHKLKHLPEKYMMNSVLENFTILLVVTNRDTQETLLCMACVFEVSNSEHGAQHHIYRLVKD

Consider `CN1CCOc2c1cc(C(N)=O)c(-c1c(Cl)c(F)cc3c1C[C@](c1ccccc1)([C@@H]1CCCN1)O3)c2F` (atropisomer, axis not shown) [Compound I-24, (S)-7-((S)-5-Chloro-6-fluoro-2-phenyl-2-((S)-pyrrolidin-2-yl)-2,3-dihydrobenzofuran-4-yl)-8-fluoro-4-methyl-3,4-dihydro-2H-benzo[b][1,4]oxazine-6-carboxamide], for which the pIC50 was greater than 7.30 in test [1], greater than 7.30 in test [2] and greater than 6.70 in test [3] (Homo sapiens).
Consider `CNC[C@@]1(c2ccccc2)Cc2c(cc(F)c(Cl)c2-c2c(C(N)=O)cn3ccnc3c2F)O1` (atropisomer, axis not shown) [Compound I-1], for which the pIC50 is greater than 7.30 in test [1], greater than 7.30 in test [2] and greater than 6.70 in test [3] (Homo sapiens).
Turning to `CC(=O)N1CCOc2c1cc(C(N)=O)c(-c1c(Cl)c(F)cc3c1C[C@](c1ccccc1)([C@@H]1CCCN1)O3)c2F` (atropisomer, axis not shown) [Compound I-27, (S)-4-Acetyl-7-((S)-5-chloro-6-fluoro-2-phenyl-2-((S)-pyrrolidin-2-yl)-2,3-dihydrobenzofuran-4-yl)-8-fluoro-3,4-dihydro-2H-benzo[b][1,4]oxazine-6-carboxamide], the pIC50 in test [1] was greater than 7.30; in test [2], greater than 7.30; in test [3] (Homo sapiens), 6.30 to 6.70.
Turning to `Cn1cc2c(n1)Oc1c(cc(C(N)=O)c(-c3c(Cl)c(F)cc4c3C[C@](c3ccccc3)([C@@H]3CCCN3)O4)c1F)O2` (atropisomer, axis not shown) [Compound 8, (S)-7-((S)-5-Chloro-6-fluoro-2-phenyl-2-((S)-pyrrolidin-2-yl)-2,3-dihydrobenzofuran-4-yl)-8-fluoro-2-methyl-2H-benzo[5,6][1,4]dioxoino[2,3-c]pyrazole-6-carboxamide], the pIC50 is greater than 7.30 in test [1], greater than 7.30 in test [2] and greater than 6.70 in test [3] (Homo sapiens).
Consider `Cn1cc2c(n1)COc1c-2cc(C(N)=O)c(-c2c(Cl)c(F)cc3c2C[C@](c2ccccc2)([C@@H]2CCCN2)O3)c1F` (atropisomer, axis not shown) [Compound 3, (S)-7-((S)-5-Chloro-6-fluoro-2-phenyl-2-((S)-pyrrolidin-2-yl)-2,3-dihydrobenzofuran-4-yl)-6-fluoro-2-methyl-2,4-dihydrochromeno[3,4-c]pyrazole-8-carboxamide], for which the pIC50 was greater than 7.30 in test [1], greater than 7.30 in test [2] and greater than 6.70 in test [3] (Homo sapiens).
With `NC(=O)c1cc2c(c(F)c1-c1c(Cl)c(F)cc3c1CC(c1ccccc1)(C1CCCN1)O3)OCCN2` [Compound I-19, (S)-7-((S)-5-Chloro-6-fluoro-2-phenyl-2-((S)-pyrrolidin-2-yl)-2,3-dihydrobenzofuran-4-yl)-8-fluoro-3,4-dihydro-2H-benzo[b][1,4]oxazine-6-carboxamide], the pIC50 in test [1] and in test [2] was greater than 7.30 throughout.
For the molecule `NC(=O)c1cc2c(c(F)c1-c1c(Cl)c(F)cc3c1C[C@](c1ccccc1)([C@@H]1CCCN1)O3)Oc1nn(C3CC3)c(=O)cc1O2` (atropisomer, axis not shown) [Compound 128, (S)-8-((S)-5-Chloro-6-fluoro-2-phenyl-2-((S)-pyrrolidin-2-yl)-2,3-dihydrobenzofuran-4-yl)-2-cyclopropyl-9-fluoro-3-oxo-2,3-hydrobenzo[5,6][1,4]dioxo [2,3-c]pyridazine-7-carboxamide], the results for the pIC50 in test [1] and in test [3] (Homo sapiens) were greater than 7.30 and greater than 6.70, respectively.
For the molecule `NC(=O)c1cc2c(c(F)c1-c1c(Cl)c(F)cc3c1C[C@](c1ccccc1)([C@@H]1CCCN1)O3)Oc1cnncc1O2` (atropisomer, axis not shown) [Compound 67, (S)-8-((S)-5-Chloro-6-fluoro-2-phenyl-2-((S)-pyrrolidin-2-yl)-2,3-dihydrobenzofuran-4-yl)-9-fluorobenzo[5,6][1,4]dioxo[2,3-d]pyridazine-7-carboxamide], the pIC50 is greater than 7.30 in test [1] and 6.30 to 6.70 in test [3] (Homo sapiens).
In the case of `[2H]C1([2H])CC[C@]([2H])([C@@]2(c3ccccc3)Cc3c(cc(F)c(Cl)c3-c3c(C(N)=O)cc4c(c3F)Oc3c(cnn(CCC(F)(F)F)c3=O)O4)O2)N1` (atropisomer, axis not shown) [Compound 155, (S)-8-((S)-5-Chloro-6-fluoro-2-phenyl-2-((S)-pyrrolidin-2-yl-2,5,5-d3)-2,3-dihydrobenzofuran-4-yl)-9-fluoro-1-oxo-2-(3,3,3-trifluoropropyl)-1,2-dihydroxybenzo[5,6][1,4] dioxo[2,3-d]pyridazine-7-carboxamide], the pIC50 was greater than 7.30 in test [1] and greater than 6.70 in test [3] (Homo sapiens).
Take `NC(=O)c1cc2c(c(F)c1-c1c(Cl)c(F)cc3c1C[C@](c1ccccc1)([C@@H]1CCCN1)O3)Oc1cnn(C3CC3)c(=O)c1O2` [Compound 112, (S)-8-((S)-5-Chloro-6-fluoro-2-phenyl-2-((S)-pyrrolidin-2-yl)-2,3-dihydrobenzofuran-4-yl)-3-cyclopropyl-9-fluoro-4-oxo-3,4-dihydrobenzo[5,6][1,4]dioxo[2,3-d]pyridazine-7-carboxamide]: the results for the pIC50 in test [1] and in test [3] were greater than 7.30 and 6.30 to 6.70, respectively.
Turning to `CNC[C@@]1(c2ccccc2)Cc2c(cc(F)c(Cl)c2-c2c(C(N)=O)cc3c(c2F)OCCN3)O1` (atropisomer, axis not shown) [Compound I-17, (S)-7-((S)-5-Chloro-6-fluoro-2-((methylamino)methyl)-2-phenyl-2,3-dihydrobenzofuran-4-yl)-8-fluoro-3,4-dihydro-2H-benzo[b][1,4]oxazine-6-carboxamide], the pIC50 was greater than 7.30 in test [1] and greater than 6.70 in test [3] (Homo sapiens).
Regarding `Cn1cc2c(n1)COc1c-2cc(C(N)=O)c(-c2c(Cl)c(F)cc3c2C[C@@](CN[C@H]2CC[C@H](O)CC2)(c2ccccc2)O3)c1F` (atropisomer, axis not shown) [Compound 81], the pIC50 in test [1] is greater than 7.30; in test [3] (Homo sapiens) it was greater than 6.70.
For `Cn1cnc2c(c1=O)Oc1c(cc(C(N)=O)c(-c3c(Cl)c(F)cc4c3CC(c3ccccc3)(C3CCCN3)O4)c1F)O2` [Compound 126, (S)-7-((S)-5-Chloro-6-fluoro-2-phenyl-2-((S)-pyrrolidin-2-yl)-2,3-dihydrobenzofuran-4-yl)-6-fluoro-3-methyl-4-oxo-3,4,7,8-tetrahydrobenzo[5,6][1,4]dioxo[2,3-d]pyrimidine-8-carboxamide], in that order: greater than 7.30 and greater than 6.70.
The corresponding values for `NC(=O)c1cc2c(c(F)c1-c1c(Cl)c(F)cc3c1C[C@](c1ccccc1)([C@@H]1CCCN1)O3)Oc1c(cn[nH]c1=O)O2` (atropisomer, axis not shown) [Compound 107, (S)-8-((S)-5-Chloro-6-fluoro-2-phenyl-2-((S)-pyrrolidin-2-yl)-2,3-dihydrobenzofuran-4-yl)-9-fluoro-1-oxo-1,2-dihydrobenzo[5,6][1,4]dioxo [2,3-d]pyridazine-7-carboxamide] are greater than 7.30 and greater than 6.70.
Consider `NC(=O)c1cc2c(c(F)c1-c1c(Cl)c(F)cc3c1C[C@](c1ccccc1)([C@@H]1CCCN1)O3)Oc1nnccc1O2` [Compound 71, (S)-8-((S)-5-Chloro-6-fluoro-2-phenyl-2-((S)-pyrrolidin-2-yl)-2,3-dihydrobenzofuran-4-yl)-9-fluorobenzo[5,6][1,4]dioxo[2,3-c]pyridazine-7-carboxamide], for which the pIC50 is greater than 7.30 in test [1] and 6.30 to 6.70 in test [3].

Source of the values: patent US20250177408A1, “INHIBITOR OF INTERACTION BETWEEN YAP/TAZ AND TEAD, PREPARATION THEREOF, PHARMACEUTICAL COMPOSITION THEREOF AND USE THEREOF” (ETERN BIOPHARMA (SHANGHAI) CO., LTD., priority 2022, published 2025).
